{"source": "patent US20220008402A1", "about": "“INCREASED E-CADHERIN EXPRESSION OR ACTIVITY FOR THE TREATMENT OF INFLAMMATORY DISEASES” (The Cleveland Clinic Foundation, priority 2020, published 2022)", "key": {"E-cadherin": {"system": "E-cadherin", "conditions": "literature reports; cited from earlier work"}, "T84 cell monolayers [1]": {"system": "T84 cell monolayers", "assay": "Immunoblotting of signaling molecules after multiple wounding", "assay_type": "cell-based, human", "conditions": "10 μM pretreatment 24 h; lysates 12 and 24 h post-wounding", "procedure": "Confluent T84 cell monolayers were pretreated with either vehicle, ECU (10 μM), or ML327 (10 μM), for 24 h, and were subjected to multiple wounding. Total cell lysates were collected at 12 and 24 h post-wounding, and the expression of different signaling molecules was determined by immunoblotting. Representative immunoblots (A) and densitometric quantification of protein band intensities from three independent experiments (B) are shown. Data are presented as a mean ±SE (n=3); *p<0.05; **p<0.01.\nTo prepare total cell lysates, epithelial cell monolayers were scraped and homogenized using a Dounce homogenizer in RIPA buffer (20 mM Tris, 50 mM NaCl, 2 mM EDTA, 2 mM EGTA, 1% sodium deoxycholate, 1% Triton X-100 (TX-100), and 0.1% SDS, pH 7.4) containing protease inhibitor cocktail and phosphatase inhibitor cocktails 2 and 3 (Sigma-Aldrich). The obtained total cell lysates were cleared by centrifugation (20 min at 14,000×g), diluted with 2×SDS sample loading buffer and boiled. SDS-polyacrylamide gel electrophoresis was conducted using a standard protocol with equal amounts of total protein (10 or 20 μg) loaded per each lane. The separated proteins were transferred to nitrocellulose membranes and the membranes were blocked with 5% non-fat milk. […]"}, "T84 cell monolayers [2]": {"system": "T84 cell monolayers", "assay": "Cytokine (TNFα/IFNγ)-induced disruption of the epithelial barrier (TEER, FITC-dextran flux)", "assay_type": "cell-based, human", "conditions": "10 μM pretreatment 24 h, then TNFα 10 ng/ml + IFNγ 50 ng/ml, 48 h", "procedure": "(§1) Confluent T84 cell monolayers were pretreated with either vehicle, or ECU (10 μM) for 24 h. Afterwards, cells were exposed to a combination of TNFα (10 ng/ml) and IFNγ (50 ng/ml) with and without ECU. (A) TEER was measured at the indicated times. (B) FITC-dextran flux was examined after 48 h incubation with cytokines. Data is presented as mean ±SE (n=3); ***P<0.001.\nas §1, with “ML327” for “ECU”, “hours.” for “h.”, “ML327.” for “ECU.”, “(n=3); **P<0.05,” for “(n=3);”\n(§2) Transepithelial electrical resistance (TEER) of cultured T84, HT-29 and SK-C015 intestinal epithelial cell monolayers was measured using an EVOMX voltohmmeter (World Precision Instruments, Sarasota, Fla.). Cells were plated on collagen-coated transwell filters (pore size 3 μm, Thermo-Fisher). The resistance of cell-free collagen-coated filters was subtracted from each experimental point. An in vitro dextran flux assay was performed by a following commonly-used protocol. Intestinal epithelial cell monolayers growing on transwell filters were apically exposed to 1 mg/ml of FITC-labeled dextran (4,000 Da) in HEPES-buffered Hanks balanced salt solution (HBSS). After 120 min of incubation, HBSS samples were collected from the lower chamber, and FITC fluorescence intensity was measured using a Victor^3 V plate reader (Perkin Elmer, Waltham, Mass.) with excitation and emission wavelengths 485 and 544 nm, respectively. After subtracting the fluorescence of dextran-free HBSS the amount of FITC dextran translocated across the epithelial cell monolayer was calculated based on a calibration curve using Prism 5 software (GraphPad, La Jolla, Calif.).\nA combination of two cytokines were selected: tumor necrosis factor alpha (TNFα, 10 ng/ml) and interferon-gamma (IFNγ, 50 ng/ml), which are known to compromise barrier integrity and trigger apical junction disassembly in cultured epithelial cell monolayers and intestinal mucosa in mice. Indeed, 48 hour incubation of well-differentiated T84 cell monolayers with TNFα and IFNγ caused a dramatic decrease in TEER (FIGS. 3A, 4A) and increase in transepithelial dextran flux (FIGS. 3B, 4B), which indicates the increase in barrier permeability. […] Next, it was examined if ECU protects epithelial adherens junctions (AJ) and tight junctions (TJ) from cytokine-induced disassembly. Immunofluorescence labeling of a specific AJ marker, E-cadherin, and a TJ marker, ZO-1, was used to visualize structure of different junctional complexes. […]"}, "T84 cell monolayers [3]": {"system": "T84 cell monolayers", "assay": "Wound healing assay", "assay_type": "cell-based, human", "conditions": "10 μM pretreatment 24 h, migration 24-48 hours", "procedure": "FIG. 8: E-cadherin-enhancing drug promote collective migration of intestinal epithelial cells. Confluent T84 cell monolayers were pretreated with either vehicle, ECU (10 μM) or ML327 (10 μM) for 24 hours. Afterwards, cell monolayers were wounded and allowed to migrate into wound area in the presence of the drugs. Cell monolayers were photographed and wound closure was calculated at the indicated times. Data is presented as mean ±SE (n=3); **P<0.05, ***P<0.01.\nConfluent epithelial cell monolayers were mechanically wounded by making a thin scratch wound with a 200 μl pipette tip. The bottom of the well was marked to define the position of the wound and the monolayers were supplied with fresh cell culture medium. The images of a cell-free area at the marked region were acquired at the indicated times after wounding using an inverted bright field microscope equipped with a camera. The percentage of wound closure was calculated using an Image J software (NIH, Bethesda, Md.).\nFinally, the effects of E-cadherin-enhancing drugs on epithelial restitution (wound healing) were examined. This is an important question given the fact that epithelial wounds are frequently formed in inflamed intestinal mucosa of IBD patients and wound healing is necessary to restore the integrity of the gut barrier and to achieve remission of chronic inflammatory diseases. […]"}, "[4]": {"system": "HT-29 cF8 cell monolayers", "assay": "Epithelial barrier permeability in vitro (TEER, FITC-dextran flux), steady state", "assay_type": "cell-based, human", "conditions": "10 μM", "procedure": "(§3) FIG. 1: E-cadherin-enhancing drugs decrease ionic permeability of model colonic epithelial cell monolayers. Confluent T84 (A), HT-29cF8 (B) and SK-0015 (C) cell monolayers were treated for indicated times with either vehicle, E-cadherin upregulator (ECU, 10 μM), or ML327 (10 μM). Transepithelial electrical resistance (TEER) of the cell monolayers was measured before and during the drug treatment. Data is presented as mean ±SE (n=3); *P<0.05.\n(§4) FIG. 2: E-cadherin-enhancing drugs decrease colonic epithelial permeability to large molecules. Confluent T84 (A), HT-29cF8 (B) and SK-C015 (C) cell monolayers were treated with either vehicle, ECU, or ML327, as described in the FIG. 1 legend. Trans-monolayer flux of FITC-dextran was determined at the end of the drug treatment. Data is presented as mean ±SE (n=3); **P<0.05 ***P<0.01.\nas §2\n(§5) One set of experiments examined the effects of E-cadherin upregulator (ECU) and ML327 on the barrier properties of normal model intestinal epithelial cell monolayers. Three different human colonic epithelial cell lines, namely, T84, SK-0015 and HT-29 cF8 cells, were used. Cells were plated on collagen-coated transwell filters and allowed to reach confluency and differentiate for 5-7 days after plating. Thereafter, cell monolayers were exposed to either ECU (10 μM), ML327 (10 μM) or vehicle (DMSO). Transepithelial electrical resistance (TEER) was measured before and at different times after addition of E-cadherin-enhancing drugs. A transepithelial flux of FITC-dextran was examined at the end of the drug exposure to evaluate epithelial permeability to large uncharged molecules."}, "T84 cell monolayers [5]": {"system": "T84 cell monolayers", "assay": "Epithelial barrier permeability in vitro (TEER, FITC-dextran flux), steady state", "assay_type": "cell-based, human", "conditions": "10 μM", "procedure": "as §3, §4, §2, §5"}, "SK-0015 cell monolayers": {"system": "SK-0015 cell monolayers", "assay": "Epithelial barrier permeability in vitro (TEER, FITC-dextran flux), steady state", "assay_type": "cell-based, human", "conditions": "10 μM", "procedure": "as §3, §4, §2, §5"}, "[6]": {"conditions": "at the end of the drug exposure"}, "[7]": {"conditions": "rapid (within 24 h) and sustained (up to 96 h), vs vehicle (DMSO)"}}, "note": "Entries after “also recorded” stand apart in the source; their conditions may differ.", "data": [{"smiles": "Nc1ncn([C@@H]2O[C@H](CO)[C@@H](O)[C@H]2O)c(=O)n1", "note": "[5-Axacytidine]", "values": [{"measurement": "E-cadherin expression", "setting": "E-cadherin", "result": "stimulate E-cadherin expression"}]}, {"smiles": "CN(C)C(=S)NN=C(c1ccccn1)c1ccccn1", "note": "[Dp44mT, Di(2-pyridyl)ketone 4,4-dimethyl-3-thiosemicarbazone]", "values": [{"measurement": "E-cadherin expression", "setting": "E-cadherin", "result": "stimulate E-cadherin expression"}]}, {"smiles": "CN(C(=S)NN=C(c1ccccn1)c1ccccn1)C1CCCCC1", "note": "[DpC, di(2-pyridyl)ketone 4-cyclohexyl-4-methyl-3-thiosemicarbazone]", "values": [{"measurement": "E-cadherin expression", "setting": "E-cadherin", "result": "stimulate E-cadherin expression"}]}, {"smiles": "O=C(NCCCNC(=O)c1cccnc1O)c1cc(-c2ccccc2)on1", "note": "[ML327, N-(3-(2-hydroxynicotinamido)propyl)-5-phenylisoxazole-3-carboxamide]", "values": [{"measurement": "Expression of signaling molecules (pro-migratory signaling)", "setting": "T84 cell monolayers [1]", "result": "activation of pro-migratory signaling events"}, {"measurement": "Cytokine-induced decrease in TEER", "setting": "T84 cell monolayers [2]", "result": "prevents cytokine-induced disruption; also recorded: markedly attenuated"}, {"measurement": "Cytokine-induced increase in transepithelial FITC-dextran flux", "setting": "T84 cell monolayers [2]", "result": "prevents cytokine-induced disruption; also recorded: markedly attenuated"}, {"measurement": "Cell migration during wound healing (wound closure)", "setting": "T84 cell monolayers [3]", "result": "significantly increased migration"}, {"measurement": "Transepithelial flux of FITC-dextran", "setting": "[4]; [6]", "result": "significantly inhibited FITC-dextran flux"}, {"measurement": "Transepithelial electrical resistance (TEER)", "setting": "[4]; up to 96 h, vs vehicle (DMSO)", "result": "transiently increased TEER for the first 48 hours with its subsequent decrease at later times"}, {"measurement": "Transepithelial flux of FITC-dextran", "setting": "T84 cell monolayers [5]; at the end of the drug exposure, T84", "result": "significantly inhibited FITC-dextran flux"}, {"measurement": "Transepithelial electrical resistance (TEER)", "setting": "T84 cell monolayers [5]; [7]", "result": "increase in TEER"}, {"measurement": "Transepithelial flux of FITC-dextran", "setting": "SK-0015 cell monolayers; [6]", "result": "significantly inhibited FITC-dextran flux"}, {"measurement": "Transepithelial electrical resistance (TEER)", "setting": "SK-0015 cell monolayers; [7]", "result": "increase in TEER"}]}, {"smiles": "CCCCCCCCCCCCC/C=C/[C@@H](O)[C@@H](N)COP(=O)(O)O", "note": "[Sphingosine-1-Phosphate]", "values": [{"measurement": "E-cadherin expression", "setting": "E-cadherin", "result": "stimulate E-cadherin expression"}]}, {"smiles": "CN(Cc1cnc2nc(N)nc(N)c2n1)c1ccc(C(=O)N[C@@H](CCC(=O)O)C(=O)O)cc1", "note": "[methotrexate]", "values": [{"measurement": "E-cadherin expression", "setting": "E-cadherin", "result": "stimulated E-cadherin expression"}]}]}
